# Assay results: ChEMBL document CHEMBL3994570, “Euphorbia dendroides Latex as a Source of Jatrophane Esters: Isolation, Structural Analysis, Conformational Study, and Anti-CHIKV Activity” (J Nat Prod, 2016)
# The source made the active and inactive calls. The rule behind the calls is not given here.
# How the values were obtained:
# Chikungunya virus = test: Antiviral activity against Chikungunya virus 899 infected in African green monkey Vero cells assessed as inhibition of virus-induced cytopathic effect after 6 to 7 days by MTS assay; assay type: functional; settings: for EC50: Chikungunya virus, 899, Vero
# Vero = test: (§1) Cytotoxicity against African green monkey Vero cells assessed as reduction in metabolic activity by MTS assay; assay type: ADME, cell-based; settings: chlorocebus sabaeus, vero
# [1] = as §1; assay type: ADME, cell-based; settings: chlorocebus sabaeus, Vero cells
# [2] = Selectivity index, ratio of CC50 for African green monkey Vero cells to EC50 for Chikungunya virus 899 infected in African green monkey Vero cells; assay type: toxicity; settings: read-out: Ratio CC50/EC50
SMILES,inhibition (Chikungunya virus),also measured
C=C1[C@H](C(=O)C(C)C)[C@H]2[C@@H](OC(C)=O)[C@](C)(O)C[C@]2(O)C(=O)[C@@H](C)/C=C/C(C)(C)[C@H](OC(C)=O)[C@H](OC(C)=O)[C@H]1OC(=O)c1ccccc1,inactive,
C=C1[C@H](OC(=O)c2ccccc2)[C@@H](O)[C@@H](OC(C)=O)C(C)(C)/C=C/[C@H](C)C(=O)[C@@]2(O)C[C@@](C)(OC(C)=O)[C@H](O)[C@@H]2[C@H]1OC(=O)c1ccccc1,inactive,Activity (Vero): Non-Toxic
CC(=O)O[C@H]1[C@@H](OC(C)=O)C(C)(C)/C=C/[C@H](C)C(=O)[C@@]2(OC(C)=O)C[C@@](C)(OC(C)=O)[C@H](O)[C@@H]2[C@H]2OC(=O)CC[C@@]2(OC(C)=O)[C@@H]1OC(=O)C(C)C,inactive,
CC(=O)O[C@H]1[C@@H](OC(C)=O)C(C)(C)/C=C/[C@H](C)C(=O)[C@@]2(O)C[C@@](C)(OC(C)=O)[C@H](OC(C)=O)[C@@H]2[C@H]2OC(=O)CC[C@@]2(OC(=O)C(C)C)[C@@H]1OC(=O)C(C)C,,CC50 [1]: 36 µM; EC50 (Chikungunya virus): 15 µM; selectivity ratio [2]: 2.4
C=C1[C@H](OC(=O)c2ccccc2)[C@@H](OC(C)=O)[C@@H](OC(C)=O)C(C)(C)/C=C/[C@H](C)C(=O)[C@@]2(O)C[C@@](C)(OC(C)=O)[C@H](O)[C@@H]2[C@H]1OC(=O)C(C)C,inactive,
C=C1[C@H](OC(=O)c2ccccc2)[C@@H](OC(C)=O)[C@@H](OC(C)=O)C(C)(C)/C=C/[C@H](C)C(=O)[C@@]2(O)C[C@@](C)(OC(C)=O)[C@H](O)[C@@H]2[C@H]1OC(=O)c1ccccc1,inactive,Activity (Vero): Non-Toxic
C=C1[C@H](OC(=O)C(C)C)[C@@H](OC(C)=O)[C@@H](OC(C)=O)C(C)(C)/C=C/[C@H](C)C(=O)[C@@]2(O)C[C@@](C)(OC(C)=O)[C@H](OC(=O)COC(=O)c3ccccc3)[C@@H]2[C@H]1OC(C)=O,,CC50 [1]: 17.7 µM; EC50 (Chikungunya virus): 5.5 µM; selectivity ratio [2]: 3.2
CC(=O)O[C@H]1[C@@H](OC(C)=O)C(C)(C)/C=C/[C@@](C)(O)C(=O)[C@@]2(OC(C)=O)C[C@@](C)(OC(C)=O)[C@H](OC(C)=O)[C@@H]2[C@H]2OC(=O)CC[C@@]2(OC(C)=O)[C@@H]1OC(=O)C(C)C,inactive,
CC(=O)O[C@H]1[C@@H](OC(C)=O)C(C)(C)/C=C/[C@@](C)(O)C(=O)[C@@]2(O)C[C@@](C)(OC(C)=O)[C@H](OC(C)=O)[C@@H]2[C@H]2OC(=O)CC[C@@]2(OC(C)=O)[C@@H]1OC(=O)C(C)C,inactive,
C=C1[C@H](C(=O)C(C)C)[C@H]2[C@@H](OC(C)=O)[C@@H](C)C[C@]2(O)C(=O)[C@@H](C)/C=C/C(C)(C)[C@H](OC(C)=O)[C@H](OC(C)=O)[C@H]1OC(=O)c1ccccc1,inactive,
C=C1[C@H](OC(=O)c2ccccc2)[C@@H](OC(C)=O)[C@@H](OC(C)=O)C(C)(C)/C=C/[C@H](C)C(=O)[C@@]2(O)C[C@@](C)(OC(C)=O)[C@H](OC(C)=O)[C@@H]2[C@H]1OC(=O)C(C)C,inactive,
C=C1[C@H](OC(=O)c2ccccc2)[C@@H](OC(C)=O)[C@@H](OC(C)=O)C(C)(C)/C=C/[C@H](C)C(=O)[C@@]2(O)C[C@@](C)(OC(C)=O)[C@H](OC(=O)C(C)C)[C@@H]2[C@H]1OC(=O)C(C)C,inactive,
C=C1[C@H](OC(=O)C(C)C)[C@@H](OC(C)=O)[C@@H](OC(C)=O)C(C)(C)/C=C/[C@H](C)C(=O)[C@@]2(O)C[C@@](C)(OC(C)=O)[C@H](OC(=O)c3ccccc3)[C@@H]2[C@H]1OC(=O)C(C)C,inactive,
C=C1[C@H](O)[C@H]2[C@@H](OC(=O)c3ccccc3)[C@](C)(O)C[C@]2(O)C(=O)[C@@H](C)/C=C/C(C)(C)[C@H](OC(C)=O)[C@H](OC(C)=O)[C@H]1OC(=O)c1ccccc1,inactive,
C=C1[C@H](OC(=O)c2ccccc2)[C@@H](OC(C)=O)[C@@H](OC(C)=O)C(C)(C)/C=C/[C@H](C)C(=O)[C@@]2(O)C[C@@](C)(OC(C)=O)[C@H](O)[C@@H]2[C@H]1OC(=O)C(C)CC (some centres not stated),inactive,Activity (Vero): Non-Toxic
